BindingDB's records for doi:10.1074/jbc.M110.164293 (Manchester Interdisciplinary Biocentre, 2010)

Key:
Test in all cases: Binding Assay
[1] = biological target: T1, Steroid C26-monooxygenase (Mycobacterium tuberculosis (strain CDC 1551 / Oshkosh), UniProt P9WPP0)
T1 sequence (P9WPP0 whole entry): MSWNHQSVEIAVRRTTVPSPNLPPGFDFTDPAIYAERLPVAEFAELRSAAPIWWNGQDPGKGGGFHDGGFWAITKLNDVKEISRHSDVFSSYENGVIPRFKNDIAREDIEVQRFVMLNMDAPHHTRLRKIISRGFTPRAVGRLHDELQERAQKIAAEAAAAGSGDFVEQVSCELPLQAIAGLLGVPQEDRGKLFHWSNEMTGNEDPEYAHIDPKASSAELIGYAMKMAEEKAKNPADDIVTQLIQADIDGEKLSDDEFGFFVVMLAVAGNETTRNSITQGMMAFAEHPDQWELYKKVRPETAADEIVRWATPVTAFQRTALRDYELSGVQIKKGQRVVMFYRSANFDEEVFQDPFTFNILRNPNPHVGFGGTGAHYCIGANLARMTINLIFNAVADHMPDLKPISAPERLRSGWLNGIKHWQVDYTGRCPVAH
From the text: (§1) Substrate and ligand binding assay using UV- visible absorbance analysis of CYP142 was done on a Cary UV-50 UV-visible scanning spectrophotometer (Varian, UK) using a 1-cm path length quartz cuvette, recording spectra between 250 and 800 nm.

[2] = biological target: T2, Steroid C26-monooxygenase (Mycobacterium tuberculosis (strain CDC 1551 / Oshkosh), UniProt P9WPL4)
T2 sequence (P9WPL4 whole entry): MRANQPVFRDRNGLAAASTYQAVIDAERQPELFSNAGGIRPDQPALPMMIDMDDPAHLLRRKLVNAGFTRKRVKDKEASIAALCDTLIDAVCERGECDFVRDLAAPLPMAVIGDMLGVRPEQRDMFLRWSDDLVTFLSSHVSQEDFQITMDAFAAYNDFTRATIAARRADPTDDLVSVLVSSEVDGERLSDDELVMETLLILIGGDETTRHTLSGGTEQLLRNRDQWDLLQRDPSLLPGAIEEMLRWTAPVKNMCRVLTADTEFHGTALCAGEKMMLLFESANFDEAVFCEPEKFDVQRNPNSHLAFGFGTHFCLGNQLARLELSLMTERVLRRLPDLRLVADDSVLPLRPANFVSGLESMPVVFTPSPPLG
From the text: as §1

Cytochrome P450 144 = biological target: T3, Cytochrome P450 144 (Mycobacterium tuberculosis (strain CDC 1551 / Oshkosh), UniProt P9WPL0)
T3 sequence (P9WPL0 whole entry): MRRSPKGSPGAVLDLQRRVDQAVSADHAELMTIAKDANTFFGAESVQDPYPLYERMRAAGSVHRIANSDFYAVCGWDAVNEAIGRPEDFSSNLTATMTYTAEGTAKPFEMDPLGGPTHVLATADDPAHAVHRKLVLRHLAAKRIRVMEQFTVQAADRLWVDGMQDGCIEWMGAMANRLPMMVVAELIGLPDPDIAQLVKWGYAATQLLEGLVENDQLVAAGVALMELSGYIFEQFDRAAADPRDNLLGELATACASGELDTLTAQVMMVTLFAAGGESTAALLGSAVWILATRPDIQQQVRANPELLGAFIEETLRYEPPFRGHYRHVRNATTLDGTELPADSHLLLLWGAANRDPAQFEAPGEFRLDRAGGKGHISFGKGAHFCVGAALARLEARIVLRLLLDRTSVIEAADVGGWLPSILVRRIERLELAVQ
From the text: as §1

For c1ccc(-c2c[nH]cn2)cc1, the Kd [1] was 216 µM, the Kd [2] was 12 µM and the Kd (Cytochrome P450 144) was 280 µM.
In the case of Clc1ccccc1C(c1ccccc1)(c1ccccc1)n1ccnc1, the Kd [1] is reported as 5.3 µM, the Kd [2] is reported as 3.8 µM and the Kd (Cytochrome P450 144) is reported as 0.37 µM.
Work on CC(C)CCC[C@@H](C)[C@H]1CC[C@H]2[C@@H]3CCC4=CC(=O)CC[C@]4(C)[C@H]3CC[C@]12C [4-Cholesten-3-one] yielded a Kd [1] of 1.2 µM and a Kd [2] of 0.36 µM.
CC(=O)N1CCN(c2ccc(OC[C@H]3CO[C@](Cn4ccnc4)(c4ccc(Cl)cc4Cl)O3)cc2)CC1 [24F2-1,25(OH)D3] gave a Kd [1] of 27.1 µM, a Kd [2] of 21 µM and a Kd (Cytochrome P450 144) of 134 µM.
Compound CC(C)CCC[C@@H](C)[C@H]1CC[C@H]2[C@@H]3CC=C4C[C@@H](O)CC[C@]4(C)[C@H]3CC[C@]12C [(1S,2R,5S,10S,11S,14R,15R)-2,15-dimethyl-14-[(2R)-6-methylheptan-2-yl]tetracyclo[8.7.0.0^{2,7}.0^{11,15}]heptadec-7-en-5-ol] has a Kd [1] of 0.11 µM and a Kd [2] of 0.34 µM.
In the case of Clc1ccc(CO[C@@H](Cn2ccnc2)c2ccc(Cl)cc2Cl)c(Cl)c1 [Brentan], the Kd [1] is reported as 4.6 µM, the Kd [2] is reported as 4 µM and the Kd (Cytochrome P450 144) is reported as 0.98 µM.
Compound Clc1ccc(COC(Cn2ccnc2)c2ccc(Cl)cc2Cl)cc1 (configuration not stated) [ECONAZOLE] has a Kd [1] of 11.7 µM, a Kd [2] of 4.6 µM and a Kd (Cytochrome P450 144) of 0.78 µM.
Compound OC(Cn1cncn1)(Cn1cncn1)c1ccc(F)cc1F [Fungata] has a Kd [1] of 43.1 µM and a Kd [2] of 860 µM.
For CCC(C)n1ncn(-c2ccc(N3CCN(c4ccc(OC[C@H]5CO[C@](Cn6cncn6)(c6ccc(Cl)cc6Cl)O5)cc4)CC3)cc2)c1=O (some centres not stated) [Oriconazole], the Kd [1] was 30.2 µM.
